From publication PMC3681807 (Neuropharmacology, 2013)
Entries after “also recorded” stand apart in the source; their conditions may differ. Read-outs that look alike come from different tables or passages of the source.

How the values were obtained:
Male Wistar rats [1] = assay: intravenous self-administration acquisition; format: in vivo, rat; conditions: for infusion rate (M) / lever discrimination (M): 0.05 mg/kg/inf, FR5, 7 non-food-restricted sessions; for self-administered drug, Max / self-administered drug, Mean: 0.05 mg/kg/infusion i.v., within 10 training sessions; for level of drug intake from session to session: during acquisition
Male Wistar rats [2] = assay: fixed-ratio; format: in vivo, rat
Male Wistar rats [3] = assay: progressive-ratio dose-response self-administration testing; format: in vivo, rat; conditions: for number of correct lever presses (M) / post-reinforcement pause duration (M) / time to reach breakpoint: PR; for number of correct lever presses (M) / post-reinforcement pause duration (M): 1st 3 hours of session
Male Wistar rats [4] = assay: locomotor activity by radiotelemetry after non-contingent s.c. administration; format: in vivo, rat; conditions: for maximal increase of activity over baseline and/or vehicle: lower doses
Male Wistar rats [5] = assay: body temperature by radiotelemetry after non-contingent s.c. administration; format: in vivo, rat; conditions: for effect on body temperature: 0–5.6 mg/kg s.c., MDPV at TA about 23 °C
DAT/SERT = conditions: ref Simmler et al., 2013; cited from earlier work
[6] = tested on: alpha adrenergic receptors; conditions: ref Roth et al., 2000, Rothman et al., 2001, 2003; cited from earlier work
Male Wistar rats [7] = assay: stereotypy after self-administration sessions; format: in vivo, rat; conditions: FR5 dose-response testing
Male Wistar rats [8] = assay: stereotypy scores after non-contingent administration; format: in vivo, rat
[9] = tested on: dopamine transporter (DAT); conditions: rat synaptosomes; ref Baumann et al., 2013; cited from earlier work
[10] = tested on: noradrenaline transporter (NET); conditions: rat synaptosomes; ref Baumann et al., 2013; cited from earlier work
[11] = tested on: serotonin transporter (SERT); conditions: rat synaptosomes; ref Baumann et al., 2013; cited from earlier work
[12] = tested on: dopamine transporter (DAT); conditions: human transporters expressed by HEK 293 cells; ref Simmler et al., 2013; cited from earlier work
[13] = tested on: noradrenaline transporter (NET); conditions: human transporters expressed by HEK 293 cells; ref Simmler et al., 2013; cited from earlier work
[14] = tested on: serotonin transporter (SERT); conditions: human transporters expressed by HEK 293 cells; ref Simmler et al., 2013; cited from earlier work
monoamine release = conditions: ref Baumann et al., 2013, Simmler et al.; cited from earlier work
Sprague-Dawley rats = conditions: s.c.; ref Baumann et al., 2013; cited from earlier work
mice = conditions: i.p.; ref Marusich et al., 2012; cited from earlier work
[15] = molecular target: noradrenergic transporter (Homo sapiens, UniProt P23975); assay: biochemical
noradrenergic transporter, sequence (P23975 whole entry): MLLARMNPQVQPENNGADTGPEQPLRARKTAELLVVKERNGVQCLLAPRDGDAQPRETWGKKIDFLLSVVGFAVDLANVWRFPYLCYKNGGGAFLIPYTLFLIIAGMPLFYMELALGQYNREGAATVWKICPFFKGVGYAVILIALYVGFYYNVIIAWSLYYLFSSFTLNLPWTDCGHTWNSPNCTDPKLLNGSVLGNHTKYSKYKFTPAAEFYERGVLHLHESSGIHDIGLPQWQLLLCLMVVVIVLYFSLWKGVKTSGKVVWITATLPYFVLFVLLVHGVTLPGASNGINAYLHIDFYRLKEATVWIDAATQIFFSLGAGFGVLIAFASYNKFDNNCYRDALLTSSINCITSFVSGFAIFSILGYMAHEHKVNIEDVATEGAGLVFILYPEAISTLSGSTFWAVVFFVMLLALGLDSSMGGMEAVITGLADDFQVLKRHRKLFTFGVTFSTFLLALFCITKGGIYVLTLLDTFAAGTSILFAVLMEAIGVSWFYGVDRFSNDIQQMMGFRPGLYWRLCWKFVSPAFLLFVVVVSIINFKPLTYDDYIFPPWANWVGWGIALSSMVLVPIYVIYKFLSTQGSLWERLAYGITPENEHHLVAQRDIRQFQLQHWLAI

serotonin transporter = serotonin transporter (Homo sapiens, UniProt P31645); assay: biochemical
serotonin transporter, sequence (P31645 whole entry, the tested form may be a part): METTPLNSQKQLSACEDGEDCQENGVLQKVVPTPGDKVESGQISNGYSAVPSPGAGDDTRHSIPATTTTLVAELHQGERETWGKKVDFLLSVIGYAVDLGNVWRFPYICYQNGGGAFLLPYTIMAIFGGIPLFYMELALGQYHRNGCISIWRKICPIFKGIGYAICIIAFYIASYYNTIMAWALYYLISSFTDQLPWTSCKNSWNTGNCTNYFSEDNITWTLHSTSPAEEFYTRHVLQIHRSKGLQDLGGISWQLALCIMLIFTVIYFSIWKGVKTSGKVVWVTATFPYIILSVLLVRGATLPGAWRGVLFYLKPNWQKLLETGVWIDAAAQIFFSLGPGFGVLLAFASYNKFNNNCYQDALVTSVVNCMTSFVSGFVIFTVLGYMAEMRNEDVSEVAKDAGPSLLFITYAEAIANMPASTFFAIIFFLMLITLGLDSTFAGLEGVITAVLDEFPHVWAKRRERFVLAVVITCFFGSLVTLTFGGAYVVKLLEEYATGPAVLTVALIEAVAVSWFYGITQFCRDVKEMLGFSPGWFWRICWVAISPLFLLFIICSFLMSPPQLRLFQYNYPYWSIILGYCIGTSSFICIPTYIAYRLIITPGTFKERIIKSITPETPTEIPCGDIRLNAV

[16] = FR5, per-infusion dose 0.01 mg/kg
[17] = FR5, per-infusion dose 0.05 mg/kg
[18] = FR5, per-infusion dose 0.10 mg/kg
[19] = FR5, per-infusion dose 0.25 mg/kg
[20] = 1.0 mg/kg s.c., MDPV 30- and 60-min bins, METH 30-, 90- and 120-min bins
[21] = 1.0 mg/kg s.c., MDPV 180-min bin, METH 30- to 120-min bins
[22] = 5.6 mg/kg s.c., summed deviations from mean of vehicle
[23] = FR5, per-infusion dose 0.50 mg/kg

In the case of `CN[C@@H](C)Cc1ccccc1` [METH, d-methamphetamine, reference compound], the “infusion rate (M)” value (Male Wistar rats [1]) is reported as 8 inf/hr, the “lever discrimination (M)” value (Male Wistar rats [1]) is reported as 83% and the “self-administered drug, Max” value (Male Wistar rats [1]) is reported as 1.15 mg/kg/h. For the same compound, the “self-administered drug, Mean” value (Male Wistar rats [1]) was 0.4 mg/kg/h, the “level of drug intake from session to session” value (Male Wistar rats [1]) was ~ 0.5 mg/kg/hr and the “infusion rate (M)” value (Male Wistar rats [2]; [16]) was 8 infusions/hour. The “post-reinforcement pause length (M)” value (Male Wistar rats [2]; [16]) was 94 s, the “infusion rate (M)” value (Male Wistar rats [2]; [17]) was 6 infusions/hour and the “post-reinforcement pause length (M)” value (Male Wistar rats [2]; [17]) was 106 s. For the same compound, the “infusion rate (M)” value (Male Wistar rats [2]; [18]) was 5 infusions/hour, the “post-reinforcement pause length (M)” value (Male Wistar rats [2]; [18]) was 170 s and the “infusion rate (M)” value (Male Wistar rats [2]; [19]) was 4 infusions/hour. The “post-reinforcement pause length (M)” value (Male Wistar rats [2]; [19]) was 162 s, the “number of correct lever presses (M)” value (Male Wistar rats [3]; per-infusion dose 0.01 mg/kg) was 60 and the “post-reinforcement pause duration (M)” value (Male Wistar rats [3]; per-infusion dose 0.01 mg/kg) was 276 s. For the same compound, the “number of correct lever presses (M)” value (Male Wistar rats [3]; per-infusion dose 0.05 mg/kg) was 74, the “post-reinforcement pause duration (M)” value (Male Wistar rats [3]; per-infusion dose 0.05 mg/kg) was 103 s and the “number of correct lever presses (M)” value (Male Wistar rats [3]; per-infusion dose 0.10 mg/kg) was 250. The “post-reinforcement pause duration (M)” value (Male Wistar rats [3]; per-infusion dose 0.10 mg/kg) was 113 s, the “number of correct lever presses (M)” value (Male Wistar rats [3]; per-infusion dose 0.25 mg/kg) was 135 and the “post-reinforcement pause duration (M)” value (Male Wistar rats [3]; per-infusion dose 0.25 mg/kg) was 490 s. The “locomotor activity compared with vehicle” value (Male Wistar rats [4]; [20]) was “higher”, the “locomotor activity compared with vehicle” value (Male Wistar rats [4]; 5.6 mg/kg s.c., 60–150-min post-injection time bins) was “lower” and the “resolution of high-dose suppression of locomotion” value (Male Wistar rats [4]) was 150–180 minutes post-injection. The “duration of significant low-dose locomotor stimulation” value (Male Wistar rats [4]) was 120 minutes post-injection, the “maximal increase of activity over baseline and/or vehicle” value (Male Wistar rats [4]) was “about 4 fold” and the “effect on body temperature” value (Male Wistar rats [5]) was “increased monotonically”. For the same compound, the “body temperature compared to pre-injection baseline” value (Male Wistar rats [5]; [21]) was “higher”, the “body temperature compared to vehicle” value (Male Wistar rats [5]; 5.6 mg/kg s.c., 60- to 150-min time bins) was “higher” and the “body temperature compared to pre-injection baseline” value (Male Wistar rats [5]; 5.6 mg/kg s.c., 60- to 90-min post-injection time bins) was “higher”. The “AUC for body temperature, METH vs MDPV” value (Male Wistar rats [5]; [22]) was “higher for METH than for MDPV”, the “average body temperature as a function of dose” value (Male Wistar rats [5]; 20±2 °C TA) was “did not vary as a function of drug condition” and the “average body temperature as a function of dose” value (Male Wistar rats [5]; TA of 25±2 °C, doses in mg/kg s.c.) was 5.6 > 1.0 > vehicle. The DAT/SERT inhibition ratio (DAT/SERT) was over 10 and the binding affinity [6] was “low affinity binding”.

With `CCCC(C(=O)c1ccc2c(c1)OCO2)N1CCCC1` (centres unmarked) [MDPV, 1-(1,3-benzodioxol-5-yl)-2-(1-pyrrolidinyl)-1-pentanone] the “infusion rate (M)” value (Male Wistar rats [1]) was 19 inf/hr, the “lever discrimination (M)” value (Male Wistar rats [1]) was 86% and the “self-administered drug, Max” value (Male Wistar rats [1]) was 5.8 mg/kg/h. The “self-administered drug, Mean” value (Male Wistar rats [1]) was 0.9 mg/kg/h, the “level of drug intake from session to session” value (Male Wistar rats [1]) was ~ 1 mg/kg/hr and the reward-lever selectivity (Male Wistar rats [1]; for most rats) was over 80%. The “infusion rate (M)” value (Male Wistar rats [2]; [16]) was 35 infusions/hour, the “post-reinforcement pause length (M)” value (Male Wistar rats [2]; [16]) was 48 s and the “infusion rate (M)” value (Male Wistar rats [2]; [17]) was 13 infusions/hour. The “post-reinforcement pause length (M)” value (Male Wistar rats [2]; [17]) was 107 s, the “infusion rate (M)” value (Male Wistar rats [2]; [18]) was 8 infusions/hour and the “post-reinforcement pause length (M)” value (Male Wistar rats [2]; [18]) was 223 s. The “infusion rate (M)” value (Male Wistar rats [2]; [23]) was 4 infusions/hour, the “post-reinforcement pause length (M)” value (Male Wistar rats [2]; [23]) was 572 s and the “potency on drug-reinforced behavior compared with METH” value (Male Wistar rats [2]; more responding under lowest dose under fixed-ratio schedule) was “greater potency”. For the same compound, the “number of correct lever presses (M)” value (Male Wistar rats [3]; per-infusion dose 0.01 mg/kg) was 53, the “post-reinforcement pause duration (M)” value (Male Wistar rats [3]; per-infusion dose 0.01 mg/kg) was 225 s and the “number of correct lever presses (M)” value (Male Wistar rats [3]; per-infusion dose 0.05 mg/kg) was 610. For the same compound, the “post-reinforcement pause duration (M)” value (Male Wistar rats [3]; per-infusion dose 0.05 mg/kg) was 110 s, the “number of correct lever presses (M)” value (Male Wistar rats [3]; per-infusion dose 0.10 mg/kg) was 933 and the “post-reinforcement pause duration (M)” value (Male Wistar rats [3]; per-infusion dose 0.10 mg/kg) was 179 s. The “number of correct lever presses (M)” value (Male Wistar rats [3]; per-infusion dose 0.50 mg/kg) was 286, the “post-reinforcement pause duration (M)” value (Male Wistar rats [3]; per-infusion dose 0.50 mg/kg) was 820 s and the “time to reach breakpoint” value (Male Wistar rats [3]; per-infusion dose 0.5 mg/kg, all except 2 sessions) was at most 5 h. For the same compound, the “time to reach breakpoint” value (Male Wistar rats [3]; per-infusion doses at or below 0.1 mg/kg, all rats) was “less than 3 hrs”, the “efficacy on drug-reinforced behavior compared with METH” value (Male Wistar rats [3]; more responding under optimal dose under a progressive-ratio schedule) was “greater efficacy” and the “locomotor activity compared with vehicle” value (Male Wistar rats [4]; [20]) was “higher”. For the same compound, the “AUC for activity, MDPV vs METH” value (Male Wistar rats [4]; [22]) was “significantly higher for MDPV than METH”, the “resolution of high-dose suppression of locomotion” value (Male Wistar rats [4]) was 120–150 minutes post-injection and the “duration of significant low-dose locomotor stimulation” value (Male Wistar rats [4]) was 90 minutes post-injection. For the same compound, the “maximal increase of activity over baseline and/or vehicle” value (Male Wistar rats [4]) was “about 4 fold”, the “effect on body temperature” value (Male Wistar rats [5]) was “modestly hyper-thermic; also recorded: negligible effect on temperature” and the “body temperature compared to pre-injection baseline” value (Male Wistar rats [5]; [21]) was “higher”. For the same compound, the “effect on rat body temperature at TA of 30°C” value (Male Wistar rats [5]; additional data, not shown) was “fails to significantly elevate rat body temperature”, the “body temperature after 1.0 mg/kg compared with 5.6 mg/kg” value (Male Wistar rats [5]; s.c., TA 23±1 °C, 180-min post-injection time bin) was “higher” and the “average cumulative dose when post-session stereotypy was not observed (M)” value (Male Wistar rats [7]) was 0.6 mg/kg per one hour session. For the same compound, the “average cumulative dose when post-session stereotypy was observed (M)” value (Male Wistar rats [7]) was 1.4 mg/kg per one hour session, the “time for which stereotypy scores were higher than vehicle” value (Male Wistar rats [8]; 0.5 mg/kg s.c.) was 15 min and the “time for which stereotypy scores were higher than baseline” value (Male Wistar rats [8]; 0.5 mg/kg s.c., baseline immediately post-injection) was 15 min. For the same compound, the “time for which stereotypy scores were higher than vehicle” value (Male Wistar rats [8]; 1.0 mg/kg s.c.) was 60 min, the “time for which stereotypy scores were higher than baseline” value (Male Wistar rats [8]; 1.0 mg/kg s.c., baseline immediately post-injection) was 60 min and the “time for which stereotypy scores were higher than vehicle” value (Male Wistar rats [8]; 3.2 mg/kg s.c.) was “entire session”. For the same compound, the “time bins in which stereotypy scores were higher than baseline” value (Male Wistar rats [8]; 3.2 mg/kg s.c., baseline immediately post-injection) was 15 to 135 min, the “time for which stereotypy scores were higher than vehicle” value (Male Wistar rats [8]; 5.6 mg/kg s.c.) was “entire session” and the IC50 [9] was 4.1 nM. For the same compound, the IC50 [10] was 26 nM, the IC50 [11] was 3.35 µM and the IC50 [12] was 31 nM. The IC50 [13] was 44 nM, the IC50 [14] was 9.3 µM and the DAT/SERT inhibition ratio (DAT/SERT) was over 100. The “activity as monoamine releaser” value (monoamine release) was “ineffective as a monoamine releaser”, the “doses at which stereotypies were reported” value (Sprague-Dawley rats) was “above 0.3 mg/kg” and the “doses after which stereotypies are exhibited” value (mice) was 1 to 3 mg/kg. The Ki [15] was 166 nM and the Ki (serotonin transporter) was 1540 nM.

In the case of `COC(=O)[C@H]1[C@@H](OC(=O)c2ccccc2)C[C@@H]2CC[C@H]1N2C` [cocaine], the DAT/SERT inhibition ratio (DAT/SERT) is given as 3.1.
